Test results published in ChEMBL document CHEMBL3390836, “Mannich- and LedererManasse-based analogues of the natural product S-(+)-curcuphenol as cancer proliferation and migration inhibitors” (Medchemcomm, 2012).

Experiments:
Format in all cases: functional
SK-MEL-5 = test: Cytotoxicity against human SK-MEL-5 cells assessed as cell growth at 10^-8 M after 48 hrs by SRB assay relative to control; settings: SK-MEL-5, 48 h, read-out: Activity
TK-10 = test: Cytotoxicity against human TK10 cells assessed as cell growth at 10^-6 M after 48 hrs by SRB assay relative to control; settings: TK-10, 48 h, read-out: Activity
HT-29 = test: Cytotoxicity against human HT-29 cells assessed as cell growth at 10^-8 M after 48 hrs by SRB assay relative to control; settings: HT-29, 48 h, read-out: Activity
M14 [1] = test: Cytotoxicity against human M14 cells assessed as cell growth at 10^-7 M after 48 hrs by SRB assay relative to control; settings: M14, 48 h, read-out: Activity
LOX IMVI = test: Cytotoxicity against human LOXIMVI cells assessed as cell growth at 10^-8 M after 48 hrs by SRB assay relative to control; settings: read-out: Activity
RPMI-8226 = test: Cytotoxicity against human RPMI8226 cells assessed as cell growth at 10^-8 M after 48 hrs by SRB assay relative to control; settings: RPMI-8226, 48 h, read-out: Activity
[2] = Cytotoxicity against human UACC62 cells assessed as cell growth at 10^-7 M after 48 hrs by SRB assay relative to control; settings: UACC-62, 48 h, read-out: Activity
M14 [3] = test: Cytotoxicity against human M14 cells assessed as cell growth at 10^-6 M after 48 hrs by SRB assay relative to control; settings: M14, 48 h, read-out: Activity
ACHN [4] = test: Cytotoxicity against human ACHN cells assessed as cell growth at 10^-6 M after 48 hrs by SRB assay relative to control; settings: read-out: Activity
[5] = Cytotoxicity against human HCT15 cells assessed as cell growth at 10^-6 M after 48 hrs by SRB assay relative to control; settings: HCT-15, 48 h, read-out: Activity
NCI-H226 = test: Cytotoxicity against human NCI-H226 cells after 48 hrs by SRB assay; settings: NCI-H226, 48 h
[6] = Cytotoxicity against human OVCAR5 cells assessed as cell growth at 10^-6 M after 48 hrs by SRB assay relative to control; settings: OVCAR-5, 48 h, read-out: Activity
CAKI-1 = test: Cytotoxicity against human Caki1 cells assessed as cell growth at 10^-6 M after 48 hrs by SRB assay relative to control; settings: CAKI-1, 48 h, read-out: Activity
[7] = Cytotoxicity against human UO31 cells after 48 hrs by SRB assay; settings: UO-31, 48 h
SW-620 = test: Cytotoxicity against human SW620 cells assessed as cell growth at 10^-7 M after 48 hrs by SRB assay relative to control; settings: SW-620, 48 h, read-out: Activity
KM12 [8] = test: Cytotoxicity against human KM12 cells assessed as cell growth at 10^-7 M after 48 hrs by SRB assay relative to control; settings: KM12, 48 h, read-out: Activity
[9] = Cytotoxicity against human SKOV3 cells assessed as cell growth at 10^-4 M after 48 hrs by SRB assay relative to control; settings: SK-OV-3, 48 h, read-out: Activity
HL-60(TB) = test: Cytotoxicity against human HL-60(TB) cells after 48 hrs by SRB assay; settings: HL-60, 48 h; for CC50: read-out: LC50 (the source's name)
HOP-62 = test: Cytotoxicity against human HOP62 cells assessed as cell growth at 10^-7 M after 48 hrs by SRB assay relative to control; settings: HOP-62, 48 h, read-out: Activity
RXF 393 = test: Cytotoxicity against human RXF393 cells after 48 hrs by SRB assay; settings: RXF 393, 48 h
[10] = Cytotoxicity against human Hs 578T cells assessed as cell growth at 10^-4 M after 48 hrs by SRB assay relative to control; settings: read-out: Activity
MOLT-4 = test: Cytotoxicity against human MOLT4 cells after 48 hrs by SRB assay; settings: MOLT-4, 48 h
KM12 [11] = test: Cytotoxicity against human KM12 cells assessed as cell growth at 10^-4 M after 48 hrs by SRB assay relative to control; settings: KM12, 48 h, read-out: Activity
ACHN [12] = test: Cytotoxicity against human ACHN cells assessed as cell growth at 10^-7 M after 48 hrs by SRB assay relative to control; settings: read-out: Activity
SK-MEL-28 = test: Cytotoxicity against human SK-MEL-28 cells assessed as cell growth at 10^-7 M after 48 hrs by SRB assay relative to control; settings: SK-MEL-28, 48 h, read-out: Activity
[13] = Cytotoxicity against human OVCAR8 cells assessed as cell growth at 10^-8 M after 48 hrs by SRB assay relative to control; settings: OVCAR-8, 48 h, read-out: Activity
SK-MEL-2 = test: Cytotoxicity against human SK-MEL-2 cells after 48 hrs by SRB assay; settings: SK-MEL-2, 48 h
KM12 [14] = test: Cytotoxicity against human KM12 cells after 48 hrs by SRB assay; settings: KM12, 48 h; for CC50: read-out: LC50 (the source's name)
NCI-H322M = test: Cytotoxicity against human NCI-H322M cells assessed as cell growth at 10^-7 M after 48 hrs by SRB assay relative to control; settings: read-out: Activity
SN12C = test: Cytotoxicity against human SN12C cells assessed as cell growth at 10^-4 M after 48 hrs by SRB assay relative to control; settings: read-out: Activity
BT-549 [15] = test: Cytotoxicity against human BT549 cells assessed as cell growth at 10^-7 M after 48 hrs by SRB assay relative to control; settings: BT-549, 48 h, read-out: Activity
SR [16] = test: Cytotoxicity against human SR cells assessed as cell growth at 10^-6 M after 48 hrs by SRB assay relative to control; settings: read-out: Activity
[17] = Cytotoxicity against human Hs 578T cells assessed as cell growth at 10^-7 M after 48 hrs by SRB assay relative to control; settings: read-out: Activity
BT-549 [18] = test: Cytotoxicity against human BT549 cells assessed as cell growth at 10^-6 M after 48 hrs by SRB assay relative to control; settings: BT-549, 48 h, read-out: Activity
SR [19] = test: Cytotoxicity against human SR cells assessed as cell growth at 10^-4 M after 48 hrs by SRB assay relative to control; settings: read-out: Activity
NCI-H522 [20] = test: Cytotoxicity against human NCI-H522 cells assessed as cell growth at 10^-7 M after 48 hrs by SRB assay relative to control; settings: NCI-H522, 48 h, read-out: Activity
NCI-H522 [21] = test: Cytotoxicity against human NCI-H522 cells after 48 hrs by SRB assay; settings: NCI-H522, 48 h; for CC50: read-out: LC50 (the source's name)

## COc1ccc(CCN2COc3c([C@@H](C)CCC=C(C)C)ccc(C)c3C2)cc1OC
SK-MEL-5
  growth at 0.01 µM: 96%
TK-10
  growth at 1 µM: 89%
HT-29
  growth at 0.01 µM: 97%
M14 [1]
  growth at 0.1 µM: 97%
LOX IMVI
  growth at 0.01 µM: 87%
RPMI-8226
  growth at 0.01 µM: 93%
[2]
  growth at 0.1 µM: 90%
M14 [3]
  growth at 1 µM: 92%
ACHN [4]
  growth at 1 µM: 85%
[5]
  growth at 1 µM: 90%
NCI-H226
  GI50: 8.64 µM
  LC50: 49.1 µM
  TGI: 21.6 µM
[6]
  growth at 1 µM: 97%
CAKI-1
  growth at 1 µM: 83%
[7]
  GI50: 2.45 µM
  LC50: 36.4 µM
  TGI: 12.3 µM
SW-620
  growth at 0.1 µM: 93%
KM12 [8]
  growth at 0.1 µM: 96%
[9]
  growth at 100 µM: -60%
HL-60(TB)
  GI50: 4.11 µM
  TGI: 60.9 µM
  CC50: > 100 µM
HOP-62
  growth at 0.1 µM: 96%
RXF 393
  GI50: 1.73 µM
  LC50 (concentration killing 50% of cells): 18.2 µM
  TGI: 4.85 µM
[10]
  growth at 100 µM: -66%
MOLT-4
  GI50: 3.69 µM
  LC50: > 100 µM
  TGI: > 100 µM
KM12 [11]
  growth at 100 µM: -75%
ACHN [12]
  growth at 0.1 µM: 94%
SK-MEL-28
  growth at 0.1 µM: 84%
[13]
  growth at 0.01 µM: 86%
SK-MEL-2
  GI50: 1.88 µM
  LC50: 7.79 µM
  TGI: 3.82 µM
KM12 [14]
  GI50: 2.86 µM
  TGI: 9.64 µM
  CC50: 46.1 µM
NCI-H322M
  growth at 0.1 µM: 95%
SN12C
  growth at 100 µM: -100%
BT-549 [15]
  growth at 0.1 µM: 91%

## CC(C)=CCC[C@H](C)c1ccc(C)c2c1OCN(CC1CCNCC1)C2
SK-MEL-5
  growth at 0.01 µM: 99%
SR [16]
  growth at 1 µM: 91%
[17]
  growth at 0.1 µM: 102%
TK-10
  growth at 1 µM: 118%
BT-549 [18]
  growth at 1 µM: 104%
HT-29
  growth at 0.01 µM: 102%
M14 [1]
  growth at 0.1 µM: 99%
SR [19]
  growth at 100 µM: -42%
LOX IMVI
  growth at 0.01 µM: 100%
RPMI-8226
  growth at 0.01 µM: 99%
[2]
  growth at 0.1 µM: 96%
M14 [3]
  growth at 1 µM: 114%
ACHN [4]
  growth at 1 µM: 106%
[5]
  growth at 1 µM: 95%
NCI-H226
  GI50: 17.7 µM
  LC50: 64.5 µM
  TGI: 33.8 µM
[6]
  growth at 1 µM: 85%
CAKI-1
  growth at 1 µM: 98%
NCI-H522 [20]
  growth at 0.1 µM: 88%
[7]
  GI50: 12.8 µM
  LC50: 58.2 µM
  TGI: 27.3 µM
SW-620
  growth at 0.1 µM: 100%
KM12 [8]
  growth at 0.1 µM: 99%
[9]
  growth at 100 µM: -94%
HL-60(TB)
  GI50: 3.9 µM
  TGI: 18.9 µM
  CC50: 59.3 µM
NCI-H522 [21]
  GI50: 13.5 µM
  TGI: 28.6 µM
  CC50: 60.4 µM
HOP-62
  growth at 0.1 µM: 94%
RXF 393
  GI50: 9.2 µM
  LC50 (concentration killing 50% of cells): 88.3 µM
  TGI: 21.7 µM
[10]
  growth at 100 µM: -75%
MOLT-4
  GI50: 14.6 µM
  LC50: > 100 µM
  TGI: 43.3 µM
KM12 [11]
  growth at 100 µM: -90%
ACHN [12]
  growth at 0.1 µM: 105%
SK-MEL-28
  growth at 0.1 µM: 101%
[13]
  growth at 0.01 µM: 106%
SK-MEL-2
  GI50: 18.2 µM
  LC50: 69.2 µM
  TGI: 35.5 µM
KM12 [14]
  GI50: 12.3 µM
  TGI: 26 µM
  CC50: 55 µM
NCI-H322M
  growth at 0.1 µM: 99%
SN12C
  growth at 100 µM: -88%
BT-549 [15]
  growth at 0.1 µM: 87%

## CC(C)=CCC[C@H](C)c1ccc(C)c(CNCC2CCNCC2)c1O
SK-MEL-5
  growth at 0.01 µM: 93%
SR [16]
  growth at 1 µM: 87%
[17]
  growth at 0.1 µM: 91%
TK-10
  growth at 1 µM: 99%
BT-549 [18]
  growth at 1 µM: 81%
HT-29
  growth at 0.01 µM: 108%
SR [19]
  growth at 100 µM: -50%
LOX IMVI
  growth at 0.01 µM: 95%
[2]
  growth at 0.1 µM: 90%
ACHN [4]
  growth at 1 µM: 92%
[5]
  growth at 1 µM: 98%
NCI-H226
  GI50: 10.4 µM
  LC50: > 25 µM
  TGI: > 25 µM
[6]
  growth at 1 µM: 90%
CAKI-1
  growth at 1 µM: 89%
NCI-H522 [20]
  growth at 0.1 µM: 96%
[7]
  GI50: 3.58 µM
  LC50: > 25 µM
  TGI: 12.3 µM
SW-620
  growth at 0.1 µM: 95%
KM12 [8]
  growth at 0.1 µM: 97%
[9]
  growth at 100 µM: 8%
HL-60(TB)
  GI50: 5.02 µM
  TGI: 10.2 µM
  CC50: 20.7 µM
NCI-H522 [21]
  GI50: 8.22 µM
  TGI: > 25 µM
  CC50: > 25 µM
HOP-62
  growth at 0.1 µM: 95%
RXF 393
  GI50: 3.7 µM
  LC50 (concentration killing 50% of cells): > 25 µM
  TGI: 13.4 µM
[10]
  growth at 100 µM: 23%
MOLT-4
  LC50: > 25 µM
KM12 [11]
  growth at 100 µM: -77%
ACHN [12]
  growth at 0.1 µM: 94%
SK-MEL-28
  growth at 0.1 µM: 100%
[13]
  growth at 0.01 µM: 95%
SK-MEL-2
  GI50: 5.03 µM
  LC50: 19.2 µM
  TGI: 9.83 µM
KM12 [14]
  GI50: 4.12 µM
  TGI: 8.38 µM
  CC50: 17.1 µM
NCI-H322M
  growth at 0.1 µM: 94%
SN12C
  growth at 100 µM: 39%
BT-549 [15]
  growth at 0.1 µM: 89%
